In patent US8252793B2, “Bradykinin receptor agonists and uses thereof to treat ocular hypertension and glaucoma” (Alcon Research, Ltd., priority 2010, dated 2012):

Assays:
[1] = target: T1, BK receptors in human ciliary muscle cells (h-CM) (Homo sapiens, UniProt P30411); assay: Functional assay measuring [Ca2+]i mobilization (FLIPR) in h-CM cells; assay type: cell-based; details: class symbols (in μM), read-out: CaM (EC50)
T1 construct: h-CM cells expressing BK receptors were seeded; endogenous in cells; host or cells: human ciliary muscle (h-CM) cells
T1 sequence (P30411 1-391): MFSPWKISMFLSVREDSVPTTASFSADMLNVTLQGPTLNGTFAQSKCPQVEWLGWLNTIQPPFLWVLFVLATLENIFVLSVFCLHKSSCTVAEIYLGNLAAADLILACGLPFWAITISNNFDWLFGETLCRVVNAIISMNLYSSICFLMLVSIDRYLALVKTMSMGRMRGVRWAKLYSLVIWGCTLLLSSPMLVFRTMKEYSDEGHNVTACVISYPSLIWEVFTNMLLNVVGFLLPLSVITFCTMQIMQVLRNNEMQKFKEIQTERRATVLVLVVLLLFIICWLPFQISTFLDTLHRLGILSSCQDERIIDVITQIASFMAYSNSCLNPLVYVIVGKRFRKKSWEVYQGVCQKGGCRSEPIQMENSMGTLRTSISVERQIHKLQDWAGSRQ
Summary of the method: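 Human ciliary muscle cells loaded 1 h at 23 °C with FLIPR calcium dye in HBSS, 20 mM HEPES, 2.5 mM probenecid, pH 7.4. EC50 by 4-parameter fit.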

[2] = target: T2, recombinant human bradykinin B2 receptor (Homo sapiens, UniProt P30411); assay: [3H]-BK competition radioligand binding to human cloned B2 receptor (CHO cell membranes); details: 0.2 nM [3H]-bradykinin, CHO membranes, 60 min 23° C.; mean ± SEM or single value; Ki from IC50 by Cheng-Prusoff; read-out: [3H]-BK Binding to Human Cloned B2 Receptor (Ki)
T2 construct: expressed in transfected cells; host or cells: Chinese hamster ovary (CHO) cells, membrane homogenates
T2 sequence (P30411 1-391): T1 sequence (P30411 1-391)

[3] = tested on: primary human ciliary muscle cells (h-CM); assay: Total prostaglandin (PG) release from primary h-CM cells (EIA); assay type: cell-based; details: Homo sapiens, 1 h, 1 hour at 37° C., class symbols (in μM)
Summary of the method: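 Confluent primary h-CM cells, serum-starved (0.8% FBS) 24 h, were exposed to a 9-point concentration series (0.1 nM-10 μM) of bradykinin or BK agonist for 1 hour at 37° C. Total PG released was then quantified by EIA.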

Structure (SMILES)	EC50 [1] [µM]	Ki [2] [µM]	EC50 [3] [µM]
COc1nc2c(OCc3c(Cl)ccc(N(C)C(=O)CNC(=O)[C@H]4CCN(C(=O)OC(C)(C)C)C4)c3Cl)cccc2n1Cc1ccccn1 [Compound 34, (S)-tert-butyl 3-(2-((2,4-dichloro-3-((2-methoxy-1-(pyridin-2-ylmethyl)-1H-benzo[d]imidazol-4-yloxy)methyl)phenyl)(methyl)amino)-2-oxoethylcarbamoyl)pyrrolidine-1-carboxylate]	< 0.1	0.077	< 0.1
CNC(=O)C1CCCN(CC(=O)NCC(=O)N(C)c2ccc(Cl)c(COc3cccc4c3nc(OC)n4Cc3ccccn3)c2Cl)C1 (stereo not drawn) [Compound 35, 1-(2-(2-((2,4-dichloro-3-((2-methoxy-1-(pyridin-2-ylmethyl)-1H-benzo[d]imidazol-4-yloxy)methyl)phenyl)(methyl)amino)-2-oxoethylamino)-2-oxoethyl)-N-methylpiperidine-3-carboxamide]	< 0.1	0.396	0.1 to 1
CNC(=O)[C@H]1CCCN(CC(=O)NCC(=O)N(C)c2ccc(Cl)c(COc3cccc4c3nc(OC)n4Cc3ccccn3)c2Cl)C1 [Compound 36, (S)-1-(2-(2-((2,4-dichloro-3-((2-methoxy-1-(pyridin-2-ylmethyl)-1H-benzo[d]imidazol-4-yloxy)methyl)phenyl)(methyl)amino)-2-oxoethylamino)-2-oxoethyl)-N-methylpiperidine-3-carboxamide]	< 0.1	0.22	0.1 to 1
COC(=O)c1ccc(CCC(=O)NCC(=O)N(C)c2ccc(Cl)c(COc3cccc4c3nc(OC)n4Cc3ccccn3)c2Cl)cc1 [Compound 37, methyl 4-(3-(2-((2,4-dichloro-3-((2-methoxy-1-(pyridin-2-ylmethyl)-1H-benzo[d]imidazol-4-yloxy)methyl)phenyl)(methyl)amino)-2-oxoethylamino)-3-oxopropyl)benzoate]	< 0.1	0.0552	< 0.1
CNC(=O)[C@H]1CC[C@H](CCC(=O)NCC(=O)N(C)c2ccc(Cl)c(COc3cccc4c3nc(OC)n4Cc3ccccn3)c2Cl)CN1 [Compound 38, (2R,5R)-5-(3-((2-((2,4-dichloro-3-(((2-methoxy-1-(pyridin-2-ylmethyl)-1H-benzo[d]imidazol-4-yl)oxy)methyl)phenyl)(methyl)amino)-2-oxoethyl)amino)-3-oxopropyl)-N-methylpiperidine-2-carboxamide]	< 0.1	0.332	< 0.1
CNC(=O)[C@@H]1CC[C@H](CCC(=O)NCC(=O)N(C)c2ccc(Cl)c(COc3cccc4c3nc(OC)n4Cc3ccccn3)c2Cl)CN1 [Compound 39, (2S,5R)-5-(3-((2-((2,4-dichloro-3-(((2-methoxy-1-(pyridin-2-ylmethyl)-1H-benzo[d]imidazol-4-yl)oxy)methyl)phenyl)(methyl)amino)-2-oxoethyl)amino)-3-oxopropyl)-N-methylpiperidine-2-carboxamide]	0.1 to 1	0.514	0.1 to 1
CNC(=O)N1CCN(CC(F)(F)C(=O)NCC(=O)N(C)c2ccc(Cl)c(COc3cccc4c3nc(OC)n4Cc3ccccn3)c2Cl)CC1 [Compound 40, 4-(3-((2-((2,4-dichloro-3-(((2-methoxy-1-(pyridin-2-ylmethyl)-1H-benzo[d]imidazol-4-yl)oxy)methyl)phenyl)(methyl)amino)-2-oxoethyl)amino)-2,2-difluoro-3-oxopropyl)-N-methylpiperazine-1-carboxamide]	< 0.1	0.45	0.1 to 1
CNC(=O)C1=NCC(CCC(=O)NCC(=O)N(C)c2ccc(Cl)c(COc3cccc4c3nc(OC)n4Cc3ccccn3)c2Cl)CN1 (stereo not drawn) [Compound 41, 5-(3-((2-((2,4-dichloro-3-(((2-methoxy-1-(pyridin-2-ylmethyl)-1H-benzo[d]imidazol-4-yl)oxy)methyl)phenyl)(methyl)amino)-2-oxoethyl)amino)-3-oxopropyl)-N-methyl-1,4,5,6-tetrahydropyrimidine-2-carboxamide]	< 0.1	0.3	0.1 to 1
CNC(=O)c1ncc(CCC(=O)NCC(=O)N(C)c2ccc(Cl)c(COc3cccc4c3nc(OC)n4Cc3ccccn3)c2Cl)cn1 [Compound 42, 5-(3-((2-((2,4-dichloro-3-(((2-methoxy-1-(pyridin-2-ylmethyl)-1H-benzo[d]imidazol-4-yl)oxy)methyl)phenyl)(methyl)amino)-2-oxoethyl)amino)-3-oxopropyl)-N-methylpyrimidine-2-carboxamide]	< 0.1	0.194	0.1 to 1
CNC(=O)C1CN(CC(=O)NCC(=O)N(C)c2ccc(Cl)c(COc3cccc4c3nc(OC)n4Cc3ccccn3)c2Cl)CCO1 (stereo not drawn) [Compound 44, 4-(2-((2-((2,4-dichloro-3-(((2-methoxy-1-(pyridin-2-ylmethyl)-1H-benzo[d]imidazol-4-yl)oxy)methyl)phenyl)(methyl)amino)-2-oxoethyl)amino)-2-oxoethyl)-N-methylmorpholine-2-carboxamide]	< 0.1	0.102	< 0.1
CNC(=O)[C@@H]1CN(CC(=O)NCC(=O)N(C)c2ccc(Cl)c(COc3cccc4c3nc(OC)n4Cc3ccccn3)c2Cl)CCO1 [Compound 45, (S)-4-(2-((2-((2,4-dichloro-3-(((2-methoxy-1-(pyridin-2-ylmethyl)-1H-benzo[d]imidazol-4-yl)oxy)methyl)phenyl)(methyl)amino)-2-oxoethyl)amino)-2-oxoethyl)-N-methylmorpholine-2-carboxamide]	< 0.1	0.04	< 0.1
CNC(=O)c1ccc(CCC(=O)NCC(=O)N(C)c2ccc(C)c(COc3cccc4c3nc(OC)n4Cc3ccccn3)c2C)cc1 [Compound 56, 4-(3-((2-((3-(((2-methoxy-1-(pyridin-2-ylmethyl)-1H-benzo[d]imidazol-4-yl)oxy)methyl)-2,4-dimethylphenyl)(methyl)amino)-2-oxoethyl)amino)-3-oxopropyl)-N-methylbenzamide]	< 0.1	0.042	< 0.1
CCc1nc2c(OCc3c(Cl)ccc(N(C)C(=O)CNC(=O)CCc4ccc(NC(C)=O)nc4)c3Cl)cccn2c1C(O)c1ccccn1 (stereo not drawn) [Compound 57]	0.1 to 1	0.852	> 1
CCc1nc2c(OCc3c(Cl)ccc(N(C)C(=O)CNC(=O)CCC4CN=C(NC(C)=O)NC4)c3Cl)cccc2n1Cc1ccccn1 (stereo not drawn) [Compound 61]	< 0.1	0.451	> 1
COc1nc2c(OCc3c(Cl)ccc(N(C)C(=O)CNC(=O)[C@@H]4CCN(C(=O)OC(C)(C)C)C4)c3Cl)cccc2n1Cc1ccccn1 [Compound 62]	< 0.1	0.105	0.1 to 1
COc1nc2c(OCc3c(Cl)ccc(N(C)C(=O)CNC(=O)CCC4CN=C(N)NC4)c3Cl)cccc2n1Cc1ccccn1 (stereo not drawn) [Compound 63]	< 0.1	1.19	> 1
CNC(=O)c1ccc(CCC(=O)NCC(=O)N(C)c2ccc(Cl)c(COc3cccc4c3nc(OC)n4Cc3ccccn3)c2Cl)cn1 [Compound 64, 5-(3-((2-((2,4-dichloro-3-(((2-methoxy-1-(pyridin-2-ylmethyl)-1H-benzo[d]imidazol-4-yl)oxy)methyl)phenyl)(methyl)amino)-2-oxoethyl)amino)-3-oxopropyl)-N-methylpicolinamide]	< 0.1	0.0403	< 0.1
COc1nc2c(OCc3c(Cl)ccc(N(C)C(=O)CNC(=O)CCc4ccc(C(=O)NCCO)cc4)c3Cl)cccc2n1Cc1ccccn1 [Compound 65]	< 0.1	0.0984	< 0.1
CNC(=O)c1ccc(OCC(=O)NCC(=O)N(C)c2ccc(Cl)c(COc3cccc4c3nc(OC)n4Cc3ccccn3)c2Cl)cc1 [Compound 68]	< 0.1	0.0595	0.1 to 1
CNC(=O)c1ccc(C(=O)NCC(=O)N(C)c2ccc(Cl)c(COc3cccc4c3nc(OC)n4Cc3ccccn3)c2Cl)cn1 [Compound 69]	< 0.1	0.178	< 0.1
COc1nc2c(OCc3c(Cl)ccc(N(C)C(=O)CNC(=O)CCCNC(C)=O)c3Cl)cccc2n1Cc1ccccn1 [Compound 70]	< 0.1	0.599	0.1 to 1
CNC(=O)c1ccc(CCC(=O)NCC(=O)N(C)c2ccc(Cl)c(COc3cccc4c(OCc5nccn5C)cc(C)nc34)c2Cl)cc1 [Compound 71]	< 0.1	0.017	< 0.1
COc1nc2c(OCc3c(Cl)ccc(N(C)C(=O)CNC(=O)CCc4ccc(NC(=O)CN(C)C)nc4)c3Cl)cccc2n1Cc1ccccn1 [Compound 73]	< 0.1	0.184	0.1 to 1
